Data taken from ChEMBL document CHEMBL1141581, “Cyclic guanidines as dual 5-HT5A/5-HT7 receptor ligands: structure-activity relationship elucidation” (Bioorg Med Chem Lett, 2008).

Experiments:
[1] = molecular target: 5-hydroxytryptamine receptor 1D (Homo sapiens, UniProt P28221); test: Displacement of [3H]LSD from human recombinant 5HT1D receptor expressed in HEK293-EBNA cells; format: cell-based
[2] = molecular target: T1, 5-hydroxytryptamine receptor 1A (Homo sapiens, UniProt P08908); test: Displacement of [3H]8-OH-DPAT from human recombinant 5HT1A receptor expressed in HEK293-EBNA cells; format: cell-based
T1 sequence (P08908 whole entry): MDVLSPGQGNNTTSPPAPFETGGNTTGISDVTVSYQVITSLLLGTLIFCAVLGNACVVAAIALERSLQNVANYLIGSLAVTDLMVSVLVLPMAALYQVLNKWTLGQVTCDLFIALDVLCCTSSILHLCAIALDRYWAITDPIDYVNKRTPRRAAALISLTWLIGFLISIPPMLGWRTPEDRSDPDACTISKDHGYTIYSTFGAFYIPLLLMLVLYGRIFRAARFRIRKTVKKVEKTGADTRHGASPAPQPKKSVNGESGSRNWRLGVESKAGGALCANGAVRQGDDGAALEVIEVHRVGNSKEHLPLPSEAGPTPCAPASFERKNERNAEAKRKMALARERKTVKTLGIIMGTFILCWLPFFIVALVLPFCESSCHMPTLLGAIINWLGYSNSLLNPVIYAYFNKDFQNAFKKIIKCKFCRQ

[3] = molecular target: T2, 5-hydroxytryptamine receptor 5A (Homo sapiens, UniProt P47898); test: Displacement of [3H]LSD from human recombinant 5HT5A receptor expressed in HEK293-EBNA cells; format: cell-based
[4] = molecular target: 5-hydroxytryptamine receptor 7 (Homo sapiens, UniProt P34969); test: Displacement of [3H]LSD from human recombinant 5HT7 receptor expressed in HEK293-EBNA cells; format: cell-based
[5] = molecular target: T3, 5-hydroxytryptamine receptor 2C (Homo sapiens, UniProt P28335); test: Displacement of [3H]mesulergine from human recombinant 5HT2C receptor expressed in HEK293-EBNA cells; format: cell-based
T3 sequence (P28335 whole entry): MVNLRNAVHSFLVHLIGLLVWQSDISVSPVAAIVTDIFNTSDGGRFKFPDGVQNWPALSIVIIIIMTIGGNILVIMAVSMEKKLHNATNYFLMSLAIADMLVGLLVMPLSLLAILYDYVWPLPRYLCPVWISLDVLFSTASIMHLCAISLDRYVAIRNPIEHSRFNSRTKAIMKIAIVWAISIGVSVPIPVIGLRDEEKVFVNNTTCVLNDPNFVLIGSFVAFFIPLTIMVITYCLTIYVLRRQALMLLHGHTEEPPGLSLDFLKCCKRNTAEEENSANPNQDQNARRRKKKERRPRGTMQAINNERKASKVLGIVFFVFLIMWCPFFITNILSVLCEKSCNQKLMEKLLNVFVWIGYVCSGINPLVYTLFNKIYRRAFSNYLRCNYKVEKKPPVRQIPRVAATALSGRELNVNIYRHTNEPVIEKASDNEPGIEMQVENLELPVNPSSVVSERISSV

[6] = molecular target: 5-hydroxytryptamine receptor 2A (Homo sapiens, UniProt P28223); test: Displacement of [3H]ketanserin from human recombinant 5HT2A receptor expressed in HEK293-EBNA cells; format: cell-based
[7] = molecular target: 5-hydroxytryptamine receptor 6 (Homo sapiens, UniProt P50406); test: Displacement of [3H]LSD from human recombinant 5HT6 receptor expressed in HEK293-EBNA cells; format: cell-based
[8] = molecular target: T4, 5-hydroxytryptamine receptor 3A (Homo sapiens, UniProt P46098); test: Binding affinity to human 5HT3 receptor
T4 sequence (P46098 whole entry): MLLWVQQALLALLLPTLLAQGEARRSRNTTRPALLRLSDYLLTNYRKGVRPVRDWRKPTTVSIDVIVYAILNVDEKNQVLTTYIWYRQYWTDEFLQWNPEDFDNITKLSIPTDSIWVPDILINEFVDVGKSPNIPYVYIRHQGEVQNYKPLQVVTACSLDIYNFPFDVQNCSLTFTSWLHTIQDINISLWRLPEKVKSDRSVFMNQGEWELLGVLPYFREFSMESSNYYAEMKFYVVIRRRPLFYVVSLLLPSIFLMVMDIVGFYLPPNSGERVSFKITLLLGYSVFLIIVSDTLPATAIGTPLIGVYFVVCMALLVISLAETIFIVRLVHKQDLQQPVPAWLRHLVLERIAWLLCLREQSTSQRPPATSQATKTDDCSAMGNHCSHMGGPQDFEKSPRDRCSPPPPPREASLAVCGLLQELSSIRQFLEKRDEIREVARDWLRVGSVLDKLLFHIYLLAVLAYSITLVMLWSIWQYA

Homo sapiens [9] = organism: Homo sapiens; test: Selectivity for human recombinant 5HT5A receptor over human recombinant 5HT2A receptor
Homo sapiens [10] = organism: Homo sapiens; test: Selectivity for human recombinant 5HT5A receptor over human 5HT3 receptor
Homo sapiens [11] = organism: Homo sapiens; test: Selectivity for human recombinant 5HT5A receptor over human recombinant 5HT6 receptor
Homo sapiens [12] = organism: Homo sapiens; test: Selectivity for human recombinant 5HT5A receptor over human recombinant 5HT1D receptor
[13] = Protein binding in mouse plasma; format: ADME, cell-free; conditions: read-out: PPB (converted)
Histamine H1 receptor = Histamine H1 receptor (Homo sapiens, UniProt P35367); test: Binding affinity to histamine H1 receptor
[14] = molecular target: T5, 5-hydroxytryptamine receptor 2B (Homo sapiens, UniProt P41595); conditions: 1 uM
Description: Inhibition of 5HT2B receptor at 1 uM

[15] = Inhibition of adrenergic alpha-1 receptor at 1 uM
[16] = Inhibition of adrenergic alpha-2 receptor
[17] = molecular target: T2, 5-hydroxytryptamine receptor 5A; test: Antagonist activity at human recombinant 5HT5A receptor expressed in HEK293-EBNA cells by [35S]GTP-gamma-S binding assay; format: functional, cell-based
[18] = molecular target: T5, 5-hydroxytryptamine receptor 2B; test: Inhibition of 5HT2B receptor

T2 sequence (P47898 whole entry): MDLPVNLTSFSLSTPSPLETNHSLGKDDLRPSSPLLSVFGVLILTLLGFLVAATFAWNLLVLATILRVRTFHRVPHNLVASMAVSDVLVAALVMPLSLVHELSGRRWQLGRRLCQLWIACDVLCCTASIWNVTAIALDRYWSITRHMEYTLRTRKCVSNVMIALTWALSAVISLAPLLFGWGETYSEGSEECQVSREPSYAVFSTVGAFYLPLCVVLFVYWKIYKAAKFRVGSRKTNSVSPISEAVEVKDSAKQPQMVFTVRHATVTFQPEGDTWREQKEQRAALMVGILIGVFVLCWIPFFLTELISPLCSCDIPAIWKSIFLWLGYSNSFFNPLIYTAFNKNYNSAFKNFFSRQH
Sequence of 5-hydroxytryptamine receptor 1D (P28221 whole entry): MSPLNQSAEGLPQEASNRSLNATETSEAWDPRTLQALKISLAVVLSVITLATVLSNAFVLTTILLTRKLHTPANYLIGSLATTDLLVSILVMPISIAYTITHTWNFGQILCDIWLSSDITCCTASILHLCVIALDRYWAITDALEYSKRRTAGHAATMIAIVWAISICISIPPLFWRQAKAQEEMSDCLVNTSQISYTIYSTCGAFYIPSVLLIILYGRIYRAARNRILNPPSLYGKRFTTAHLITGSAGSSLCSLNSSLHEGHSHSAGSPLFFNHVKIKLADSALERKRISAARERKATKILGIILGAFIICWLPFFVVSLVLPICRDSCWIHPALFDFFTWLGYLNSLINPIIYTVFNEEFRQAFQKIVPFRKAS
Sequence of 5-hydroxytryptamine receptor 7 (P34969 whole entry): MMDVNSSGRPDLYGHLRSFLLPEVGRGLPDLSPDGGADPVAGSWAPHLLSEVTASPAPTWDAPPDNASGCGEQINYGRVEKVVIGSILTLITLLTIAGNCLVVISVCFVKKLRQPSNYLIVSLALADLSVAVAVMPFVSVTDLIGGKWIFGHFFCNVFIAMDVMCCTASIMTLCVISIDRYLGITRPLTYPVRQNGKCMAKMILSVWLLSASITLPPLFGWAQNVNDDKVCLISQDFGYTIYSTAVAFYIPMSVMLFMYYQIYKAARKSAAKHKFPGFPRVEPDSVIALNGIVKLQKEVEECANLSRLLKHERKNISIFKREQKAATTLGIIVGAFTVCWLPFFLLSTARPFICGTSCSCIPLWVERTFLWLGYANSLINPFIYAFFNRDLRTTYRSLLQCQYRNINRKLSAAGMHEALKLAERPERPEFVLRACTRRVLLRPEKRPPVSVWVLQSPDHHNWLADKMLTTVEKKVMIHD
Sequence of 5-hydroxytryptamine receptor 6 (P50406 whole entry): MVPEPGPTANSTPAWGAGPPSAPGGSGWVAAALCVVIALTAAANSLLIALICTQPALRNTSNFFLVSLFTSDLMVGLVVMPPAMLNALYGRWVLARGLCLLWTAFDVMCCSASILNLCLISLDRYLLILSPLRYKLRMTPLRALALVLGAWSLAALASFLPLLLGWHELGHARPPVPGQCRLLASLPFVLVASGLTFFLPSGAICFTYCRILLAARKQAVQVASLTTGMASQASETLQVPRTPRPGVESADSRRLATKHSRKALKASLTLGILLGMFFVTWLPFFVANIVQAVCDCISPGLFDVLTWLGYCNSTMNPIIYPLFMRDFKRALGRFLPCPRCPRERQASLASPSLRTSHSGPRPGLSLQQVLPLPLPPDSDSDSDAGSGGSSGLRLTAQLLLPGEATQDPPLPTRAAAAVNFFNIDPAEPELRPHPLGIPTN
T5 sequence (P41595 whole entry): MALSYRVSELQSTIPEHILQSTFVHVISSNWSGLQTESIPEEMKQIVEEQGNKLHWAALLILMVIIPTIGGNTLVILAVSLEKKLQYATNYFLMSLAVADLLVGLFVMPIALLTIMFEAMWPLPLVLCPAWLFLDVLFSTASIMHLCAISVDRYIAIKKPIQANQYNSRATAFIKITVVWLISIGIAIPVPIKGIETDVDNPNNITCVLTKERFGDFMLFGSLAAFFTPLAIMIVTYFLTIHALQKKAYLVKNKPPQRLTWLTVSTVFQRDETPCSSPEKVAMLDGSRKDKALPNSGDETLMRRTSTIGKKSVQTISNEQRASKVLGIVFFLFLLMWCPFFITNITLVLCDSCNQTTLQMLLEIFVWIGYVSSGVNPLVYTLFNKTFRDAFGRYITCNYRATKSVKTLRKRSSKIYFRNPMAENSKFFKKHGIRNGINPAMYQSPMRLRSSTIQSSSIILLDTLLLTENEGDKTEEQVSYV
Sequence of 5-hydroxytryptamine receptor 2A (P28223 whole entry): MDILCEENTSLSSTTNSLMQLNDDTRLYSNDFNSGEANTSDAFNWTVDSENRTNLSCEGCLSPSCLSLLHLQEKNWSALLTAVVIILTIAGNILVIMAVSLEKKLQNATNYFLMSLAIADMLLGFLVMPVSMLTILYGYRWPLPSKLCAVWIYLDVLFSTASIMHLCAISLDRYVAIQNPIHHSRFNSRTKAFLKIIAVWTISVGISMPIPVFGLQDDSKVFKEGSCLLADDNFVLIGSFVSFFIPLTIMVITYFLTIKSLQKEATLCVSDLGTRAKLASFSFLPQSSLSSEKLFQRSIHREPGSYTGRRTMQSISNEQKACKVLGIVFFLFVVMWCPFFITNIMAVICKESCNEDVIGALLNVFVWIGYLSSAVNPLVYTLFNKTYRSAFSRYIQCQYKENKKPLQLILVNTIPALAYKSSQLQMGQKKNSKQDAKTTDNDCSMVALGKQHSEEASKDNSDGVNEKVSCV
Sequence of Histamine H1 receptor (P35367 whole entry): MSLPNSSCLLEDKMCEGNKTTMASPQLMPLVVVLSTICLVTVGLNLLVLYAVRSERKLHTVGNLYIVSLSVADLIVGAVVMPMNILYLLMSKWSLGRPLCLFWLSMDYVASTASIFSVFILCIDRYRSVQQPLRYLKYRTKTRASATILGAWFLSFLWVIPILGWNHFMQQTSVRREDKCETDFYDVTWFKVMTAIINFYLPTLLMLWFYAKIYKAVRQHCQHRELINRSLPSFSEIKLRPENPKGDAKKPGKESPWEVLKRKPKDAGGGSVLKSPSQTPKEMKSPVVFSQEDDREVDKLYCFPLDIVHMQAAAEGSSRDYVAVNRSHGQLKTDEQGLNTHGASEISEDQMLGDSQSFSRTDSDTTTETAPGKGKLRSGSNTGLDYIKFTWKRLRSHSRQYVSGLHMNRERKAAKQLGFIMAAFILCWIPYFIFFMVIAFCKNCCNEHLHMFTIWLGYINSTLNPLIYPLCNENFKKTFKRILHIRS

`CCC1NC(N)=Nc2ccc(Cl)c(Cl)c21` (stereo not given) gave a Ki [1] of 1270 nM, a Ki [2] of 765 nM and a Ki [3] of 26.5 nM. For the same molecule, the Ki [4] was 73 nM and the Ki [5] was 155 nM.
`NC1=Nc2ccc(Cl)c(Cl)c2CN1` showed a Ki [6] of 434 nM, a Ki [1] of 1260 nM and a Ki [7] of 1160 nM. The Ki [2] was 1080 nM, the Ki [3] was 43 nM and the Ki [8] was 172 nM. For the same molecule, the Ki [4] was 294 nM and the Ki [5] was 208 nM.
For `Cc1cccc2c1CNC(N)=N2`, the Ki [3] was 145 nM.
Work on `CNC1=Nc2c(OC(C)C)cccc2C(C)N1` (stereo not given) yielded a Ratio Ki (Homo sapiens [9]) greater than 30, a Ratio Ki (Homo sapiens [10]) greater than 30 and a Ki [1] of 160 nM. It also gave a Ki [2] of 669 nM, a Ratio Ki (Homo sapiens [11]) greater than 30 and a Ki [4] of 2.4 nM. It also gave a Ki [5] of 970 nM and a Ratio Ki (Homo sapiens [12]) of 7.
Work on `NC1=Nc2ccc(Cl)cc2CN1` yielded a Ki [3] of 807 nM.
Molecule `CCCC1NC(N)=Nc2ccccc21` (stereo not given) has a Ki [3] of 805 nM.
Work on `CC1NC(N)=Nc2cccc(Cl)c21` (stereo not given) yielded a fraction unbound [13] of 0.16, a Ki (Histamine H1 receptor) of 1100 nM and a Ki [1] of 1270 nM. It also gave an inhibition [14] greater than 60%, an inhibition [15] greater than 60% and an IC50 [16] greater than 400 nM. It also gave a Ki [2] of 192 nM, a Ki [4] of 15.9 nM and a Kb [17] of 3.02 nM. For the same molecule, the IC50 [18] was greater than 400 nM and the Ki [5] was 152 nM.
In the case of `CCC1NC(N)=Nc2cccc(Cl)c21` (stereo not given), the Ki [1] is reported as greater than 10000 nM, the Ki [2] is reported as 1080 nM and the Ki [3] is reported as 84.4 nM. For the same molecule, the Ki [4] was 97.4 nM and the Ki [5] was 380 nM.
With `CC(C)Oc1cccc2c1N=C(N)NC2C` (stereo not given) the Ratio Ki (Homo sapiens [9]) was greater than 30, the Ratio Ki (Homo sapiens [10]) was greater than 30 and the Ki [1] was 70 nM. It also gave a Ki [2] of 265 nM, a Ratio Ki (Homo sapiens [11]) greater than 30 and a Ki [4] of 1 nM. For the same molecule, the Ki [5] was 488 nM and the Ratio Ki (Homo sapiens [12]) was 7.
In the case of `NC1=Nc2cc(F)ccc2CN1`, the Ki [3] is reported as 647 nM.
For `CC1NC(N)=Nc2ccc(Cl)c(Cl)c21` (stereo not given), the Ki (Histamine H1 receptor) was 8 nM, the Ratio Ki (Homo sapiens [9]) was greater than 30 and the Ratio Ki (Homo sapiens [10]) was greater than 30. For the same molecule, the Ki [1] was 260 nM, the Ki [2] was 181 nM and the Ratio Ki (Homo sapiens [11]) was greater than 30. It also gave a Ki [4] of 8.7 nM and a Ki [5] of 26 nM.
Molecule `COc1ccc2c(c1)N=C(N)NC2` has a Ki [3] of 1380 nM.
With `Cc1ccc2c(c1)N=C(N)NC2` the Ki [3] was 274 nM.
With `NC1=Nc2c(F)cccc2CN1` the Ki [3] was 1990 nM.
`Cc1ccc2c(c1)CNC(N)=N2` showed a Ki [3] of 882 nM.
Work on `Cc1cccc2c1N=C(N)NC2` yielded a Ki [3] of 463 nM.
With `COc1cc(Cl)c(C)c2c1N=C(N)NC2C` (stereo not given) the Ratio Ki (Homo sapiens [9]) was greater than 30, the Ratio Ki (Homo sapiens [10]) was greater than 30 and the Ki [1] was 143 nM. It also gave a Ki [2] of 105 nM, a Ratio Ki (Homo sapiens [11]) greater than 30 and a Ki [4] of 2.5 nM. It also gave a Ki [5] of 19 nM.
Molecule `CNC1=Nc2ccccc2CN1` has a Ki [3] of 1790 nM.
Work on `CNC1=Nc2ccc(Cl)c(Cl)c2C(C)N1` (stereo not given) yielded a Ratio Ki (Homo sapiens [9]) greater than 30, a Ratio Ki (Homo sapiens [10]) greater than 30 and a Ki [1] of 454 nM. The Ki [2] was 246 nM, the Ratio Ki (Homo sapiens [11]) was greater than 30 and the Ki [4] was 13.2 nM. The Ki [5] was 94 nM.
Molecule `NC1=Nc2cccc(Cl)c2CN1` [listing 1 of 2 here] has a Ki ([3]; hek293-ebna) of 99 nM.
`NC1=Nc2ccccc2CN1` showed a Ki [3] of 658 nM.
With `COc1cccc2c1N=C(N)NC2C` (stereo not given) the Ratio Ki (Homo sapiens [9]) was greater than 30, the Ratio Ki (Homo sapiens [10]) was greater than 30 and the Ki [1] was 446 nM. For the same molecule, the Ki [2] was 32 nM, the Ratio Ki (Homo sapiens [11]) was greater than 30 and the Ki [4] was 8.2 nM. For the same molecule, the Ki [5] was 556 nM.
For `CN(C)C1=Nc2ccccc2CN1`, the Ki [3] was 2800 nM.
Molecule `CNC1=Nc2cccc(Cl)c2C(C)N1` (stereo not given) has a Ratio Ki (Homo sapiens [9]) greater than 30, a Ratio Ki (Homo sapiens [10]) greater than 30 and a Ki [1] of 1460 nM. It also gave a Ki [2] of 389 nM, a Ratio Ki (Homo sapiens [11]) greater than 30 and a Ki [4] of 15.3 nM. It also gave a Kb [17] of 7.41 nM and a Ki [5] of 235 nM.
With `CCC1NC(N)=Nc2ccccc21` (stereo not given) the Ki [3] was 24 nM.
With `CC1(C)NC(N)=Nc2ccccc21` the Ki [3] was 1170 nM.
Molecule `NC1=Nc2c(Cl)cccc2CN1` has a Ki [3] of 892 nM.
Work on `NC1=Nc2cccc(Cl)c2CN1` [listing 2 of 2 here] yielded a Ki [6] of 1160 nM, a Ki [1] of 3590 nM and a Ki [7] greater than 10000 nM. For the same molecule, the Ki [2] was 1700 nM, the Ki [3] was 99 nM and the Ki [8] was 1050 nM. For the same molecule, the Ki [4] was 793 nM and the Ki [5] was 658 nM.
With `COc1c(Cl)ccc2c1C(C)NC(N)=N2` (stereo not given) the Ki [1] was 1160 nM, the Ki [2] was 339 nM and the Ki [3] was 22.9 nM. The Ki [4] was 12.4 nM and the Ki [5] was 74 nM.
With `CC1NC(N)=Nc2c(Cl)ccc(Cl)c21` (stereo not given) the Ratio Ki (Homo sapiens [9]) was greater than 30, the Ratio Ki (Homo sapiens [10]) was greater than 30 and the Ki [1] was 966 nM. It also gave a Ki [2] of 91 nM, a Ki [3] of 6.5 nM and a Ratio Ki (Homo sapiens [11]) greater than 30. It also gave a Ki [4] of 2.4 nM and a Ki [5] of 74 nM.
For `CC1NC(N)=Nc2ccccc21` (stereo not given), the Ki [3] was 38 nM.
Molecule `NC1=Nc2cc(Cl)ccc2CN1` has a Ki [3] of 347 nM.
Molecule `NC1=Nc2ccc(F)cc2CN1` has a Ki [3] of 911 nM.
In the case of `CN1Cc2ccccc2N=C1N`, the Ki [3] is reported as greater than 10000 nM.
Work on `NC1=Nc2cccc(F)c2CN1` yielded a Ki [3] of 550 nM.
With `COc1cccc2c1N=C(N)NC2` the Ki [3] was 97 nM.
